In brackets after ≈: the same amount, converted by molar mass.
Biological target: Dihydrofolate reductase (Staphylococcus aureus, UniProt P0A017)
Assay: Inhibition of Staphylococcus aureus DHFR using dihydrofolate as substrate preincubated for 10 mins followed by substrate addition by spectrophotometric analysis in presence of NADPH

Dihydrofolate reductase (Staphylococcus aureus, UniProt P0A017), sequence (P0A017 whole entry): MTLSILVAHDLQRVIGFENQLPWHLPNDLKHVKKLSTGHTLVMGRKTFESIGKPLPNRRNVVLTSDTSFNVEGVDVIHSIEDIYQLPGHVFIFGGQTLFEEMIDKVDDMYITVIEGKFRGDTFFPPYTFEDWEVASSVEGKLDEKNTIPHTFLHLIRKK

SMILES	Ki
Cc1cc2nc(-c3ccncc3)n(-c3ccc4c(N)nc(N)nc4c3)c2cc1C	0.026 nM
Cc1cc2nc(-c3cncn3C)n(-c3ccc4c(N)nc(N)nc4c3)c2cc1C	1.1 nM

System: Streptococcus pneumoniae
Assay: Antibacterial activity against Streptococcus pneumoniae ATCC 700677 after 18 to 24 hrs by alamar Blue assay
Format: functional

SMILES	MIC
Cc1cc2nc(-c3nccs3)n(-c3cc4nc(N)nc(N)c4cc3Cl)c2cc1C	≤ 0.5 µg/mL
COc1cc(Cc2cnc(N)nc2N)c2c(c1OC)OC(C1CC1)C=C2 (configuration not stated)	≤ 0.5 µg/mL
COc1cc(Cc2cnc(N)nc2N)cc(OC)c1OC [TRIMETHOPRIM]	4 µg/mL (≈ 13.8 µM)
Cc1cc2nc(-c3cccs3)n(-c3ccc4c(N)nc(N)nc4c3)c2cc1C	0.25 µg/mL (≈ 0.647 µM)

System: Streptococcus pneumoniae
Assay: Antibacterial activity against Streptococcus pneumoniae ATCC 51916 after 18 to 24 hrs by alamar Blue assay
Format: functional

SMILES	MIC
Cc1cc2nc(-c3nccs3)n(-c3cc4nc(N)nc(N)c4cc3Cl)c2cc1C	≤ 0.5 µg/mL
COc1cc(Cc2cnc(N)nc2N)c2c(c1OC)OC(C1CC1)C=C2 (configuration not stated)	1 µg/mL (≈ 2.82 µM)
COc1cc(Cc2cnc(N)nc2N)cc(OC)c1OC [TRIMETHOPRIM]	> 64 µg/mL
Cc1cc2nc(-c3cccs3)n(-c3ccc4c(N)nc(N)nc4c3)c2cc1C	4 µg/mL (≈ 10.3 µM)

System: Streptococcus pneumoniae
Assay: Antibacterial activity against Streptococcus pneumoniae ATCC 700904 after 18 to 24 hrs by alamar Blue assay
Format: functional

SMILES	MIC
Cc1cc2nc(-c3nccs3)n(-c3cc4nc(N)nc(N)c4cc3Cl)c2cc1C	1 µg/mL (≈ 2.37 µM)
COc1cc(Cc2cnc(N)nc2N)c2c(c1OC)OC(C1CC1)C=C2 (configuration not stated)	4 µg/mL (≈ 11.3 µM)
COc1cc(Cc2cnc(N)nc2N)cc(OC)c1OC [TRIMETHOPRIM]	> 64 µg/mL
Cc1cc2nc(-c3cccs3)n(-c3ccc4c(N)nc(N)nc4c3)c2cc1C	4 µg/mL (≈ 10.3 µM)

System: Streptococcus pneumoniae
Assay: Antibacterial activity against Streptococcus pneumoniae ATCC 700675 after 18 to 24 hrs by alamar Blue assay
Format: functional

SMILES	MIC
Cc1cc2nc(-c3nccs3)n(-c3cc4nc(N)nc(N)c4cc3Cl)c2cc1C	≤ 0.5 µg/mL
COc1cc(Cc2cnc(N)nc2N)c2c(c1OC)OC(C1CC1)C=C2 (configuration not stated)	≤ 0.5 µg/mL
COc1cc(Cc2cnc(N)nc2N)cc(OC)c1OC [TRIMETHOPRIM]	8 µg/mL (≈ 27.6 µM)
Cc1cc2nc(-c3cccs3)n(-c3ccc4c(N)nc(N)nc4c3)c2cc1C	1 µg/mL (≈ 2.59 µM)

System: not listed separately
Assay: Selectivity ratio of Ki for human DHFR to Ki for Staphylococcus aureus DHFR

SMILES	Ratio Ki
Cc1cc2nc(-c3nccs3)n(-c3cc4nc(N)nc(N)c4cc3Cl)c2cc1C	690
COc1cc2nc(-c3nccs3)n(-c3ccc4c(N)nc(N)nc4c3)c2cc1OC	5300

System: Streptococcus pneumoniae
Assay: Antibacterial activity against Streptococcus pneumoniae after 18 to 24 hrs by alamar Blue assay
Format: functional

SMILES	MIC50	MIC90
Cc1cc2nc(-c3nccs3)n(-c3cc4nc(N)nc(N)c4cc3Cl)c2cc1C	≤ 0.5 µg/mL	4 µg/mL (≈ 9.48 µM)
COc1cc(Cc2cnc(N)nc2N)c2c(c1OC)OC(C1CC1)C=C2 (configuration not stated)	≤ 0.5 µg/mL	8 µg/mL (≈ 22.6 µM)
COc1cc(Cc2cnc(N)nc2N)cc(OC)c1OC [TRIMETHOPRIM]	8 µg/mL (≈ 27.6 µM)	> 64 µg/mL
Cc1cc2nc(-c3cccs3)n(-c3ccc4c(N)nc(N)nc4c3)c2cc1C	1 µg/mL (≈ 2.59 µM)	16 µg/mL (≈ 41.4 µM)

Biological target: T1, Dihydrofolate reductase (Homo sapiens, UniProt P00374)
T1 sequence (P00374 whole entry): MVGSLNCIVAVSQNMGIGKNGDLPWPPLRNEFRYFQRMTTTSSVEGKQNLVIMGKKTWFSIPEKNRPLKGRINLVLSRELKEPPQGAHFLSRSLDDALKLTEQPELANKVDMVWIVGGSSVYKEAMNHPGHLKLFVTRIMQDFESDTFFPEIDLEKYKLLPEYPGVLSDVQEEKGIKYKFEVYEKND
Assay: Inhibition of human DHFR using dihydrofolate as substrate preincubated for 10 mins followed by substrate addition by spectrophotometric analysis in presence of NADPH

SMILES	Ki
Cc1cc2nc(-c3ccncc3)n(-c3ccc4c(N)nc(N)nc4c3)c2cc1C	437 nM
Cc1cc2nc(-c3cncn3C)n(-c3ccc4c(N)nc(N)nc4c3)c2cc1C	2920 nM

System: Streptococcus pneumoniae
Assay: Antibacterial activity against Streptococcus pneumoniae ATCC 700676 after 18 to 24 hrs by alamar Blue assay
Format: functional

SMILES	MIC
Cc1cc2nc(-c3nccs3)n(-c3cc4nc(N)nc(N)c4cc3Cl)c2cc1C	≤ 0.5 µg/mL
COc1cc(Cc2cnc(N)nc2N)c2c(c1OC)OC(C1CC1)C=C2 (configuration not stated)	≤ 0.5 µg/mL
COc1cc(Cc2cnc(N)nc2N)cc(OC)c1OC [TRIMETHOPRIM]	4 µg/mL (≈ 13.8 µM)
Cc1cc2nc(-c3cccs3)n(-c3ccc4c(N)nc(N)nc4c3)c2cc1C	0.25 µg/mL (≈ 0.647 µM)

System: Streptococcus pneumoniae
Assay: Antibacterial activity against Streptococcus pneumoniae ATCC BAA-255 after 18 to 24 hrs by alamar Blue assay
Format: functional

SMILES	MIC
Cc1cc2nc(-c3nccs3)n(-c3cc4nc(N)nc(N)c4cc3Cl)c2cc1C	≤ 0.5 µg/mL
COc1cc(Cc2cnc(N)nc2N)c2c(c1OC)OC(C1CC1)C=C2 (configuration not stated)	≤ 0.5 µg/mL
COc1cc(Cc2cnc(N)nc2N)cc(OC)c1OC [TRIMETHOPRIM]	0.5 µg/mL (≈ 1.72 µM)
Cc1cc2nc(-c3cccs3)n(-c3ccc4c(N)nc(N)nc4c3)c2cc1C	≤ 0.125 µg/mL

System: Streptococcus pneumoniae
Assay: Antibacterial activity against Streptococcus pneumoniae ATCC 700669 after 18 to 24 hrs by alamar Blue assay
Format: functional

SMILES	MIC
Cc1cc2nc(-c3nccs3)n(-c3cc4nc(N)nc(N)c4cc3Cl)c2cc1C	4 µg/mL (≈ 9.48 µM)
COc1cc(Cc2cnc(N)nc2N)c2c(c1OC)OC(C1CC1)C=C2 (configuration not stated)	8 µg/mL (≈ 22.6 µM)
COc1cc(Cc2cnc(N)nc2N)cc(OC)c1OC [TRIMETHOPRIM]	> 64 µg/mL
Cc1cc2nc(-c3cccs3)n(-c3ccc4c(N)nc(N)nc4c3)c2cc1C	4 µg/mL (≈ 10.3 µM)

System: Streptococcus pneumoniae
Assay: Antibacterial activity against Streptococcus pneumoniae ATCC 700674 after 18 to 24 hrs by alamar Blue assay
Format: functional

SMILES	MIC
Cc1cc2nc(-c3nccs3)n(-c3cc4nc(N)nc(N)c4cc3Cl)c2cc1C	4 µg/mL (≈ 9.48 µM)
COc1cc(Cc2cnc(N)nc2N)c2c(c1OC)OC(C1CC1)C=C2 (configuration not stated)	8 µg/mL (≈ 22.6 µM)
COc1cc(Cc2cnc(N)nc2N)cc(OC)c1OC [TRIMETHOPRIM]	> 64 µg/mL
Cc1cc2nc(-c3cccs3)n(-c3ccc4c(N)nc(N)nc4c3)c2cc1C	16 µg/mL (≈ 41.4 µM)

System: Staphylococcus aureus
Assay: Antibacterial activity against TMP-resistant Staphylococcus aureus expressing DHFR F99Y mutant after 18 to 24 hrs by alamar Blue assay
Format: functional

SMILES	MIC
Cc1cc2nc(-c3nccs3)n(-c3cc4nc(N)nc(N)c4cc3Cl)c2cc1C	0.25 µg/mL (≈ 0.593 µM)
COc1cc2nc(-c3nccs3)n(-c3ccc4c(N)nc(N)nc4c3)c2cc1OC	16 µg/mL (≈ 38.1 µM)
Cc1cc2nc(-c3cccs3)n(-c3ccc4c(N)nc(N)nc4c3)c2cc1C	0.25 µg/mL (≈ 0.647 µM)
Cc1cc2nc(-c3ccncc3)n(-c3ccc4c(N)nc(N)nc4c3)c2cc1C	8 µg/mL (≈ 21 µM)
Cc1cc2nc(-c3cncn3C)n(-c3ccc4c(N)nc(N)nc4c3)c2cc1C	64 µg/mL (≈ 166 µM)

System: Streptococcus pneumoniae
Assay: Antibacterial activity against Streptococcus pneumoniae ATCC 700671 after 18 to 24 hrs by alamar Blue assay
Format: functional

SMILES	MIC
Cc1cc2nc(-c3nccs3)n(-c3cc4nc(N)nc(N)c4cc3Cl)c2cc1C	4 µg/mL (≈ 9.48 µM)
COc1cc(Cc2cnc(N)nc2N)c2c(c1OC)OC(C1CC1)C=C2 (configuration not stated)	16 µg/mL (≈ 45.1 µM)
COc1cc(Cc2cnc(N)nc2N)cc(OC)c1OC [TRIMETHOPRIM]	> 64 µg/mL
Cc1cc2nc(-c3cccs3)n(-c3ccc4c(N)nc(N)nc4c3)c2cc1C	32 µg/mL (≈ 82.8 µM)

System: Streptococcus pneumoniae
Assay: Antibacterial activity against Streptococcus pneumoniae ATCC 49619 after 18 to 24 hrs by alamar Blue assay
Format: functional

SMILES	MIC
Cc1cc2nc(-c3nccs3)n(-c3cc4nc(N)nc(N)c4cc3Cl)c2cc1C	0.125 µg/mL (≈ 0.296 µM)
COc1cc(Cc2cnc(N)nc2N)c2c(c1OC)OC(C1CC1)C=C2 (configuration not stated)	0.125 µg/mL (≈ 0.353 µM)
COc1cc(Cc2cnc(N)nc2N)cc(OC)c1OC [TRIMETHOPRIM]	4 µg/mL (≈ 13.8 µM)
Cc1cc2nc(-c3cccs3)n(-c3ccc4c(N)nc(N)nc4c3)c2cc1C	≤ 0.5 µg/mL

System: Staphylococcus aureus
Assay: Antibacterial activity against Staphylococcus aureus ATCC 13709 after 18 to 24 hrs by alamar Blue assay in presence of 20% heat inactivated mouse serum
Format: functional

SMILES	MIC
COc1cc(Cc2cnc(N)nc2N)c2c(c1OC)OC(C1CC1)C=C2 (configuration not stated)	0.125 µg/mL
Cc1cc2nc(-c3ccncc3)n(-c3ccc4c(N)nc(N)nc4c3)c2cc1C	0.5 µg/mL
Cc1cc2nc(-c3cncn3C)n(-c3ccc4c(N)nc(N)nc4c3)c2cc1C	32 µg/mL

System: Staphylococcus aureus
Assay: Antibacterial activity against Staphylococcus aureus ATCC 13709 after 18 to 24 hrs by alamar Blue assay
Format: functional

SMILES	MIC
Cc1cc2nc(-c3nccs3)n(-c3cc4nc(N)nc(N)c4cc3Cl)c2cc1C	0.125 µg/mL (≈ 0.296 µM)
COc1cc(Cc2cnc(N)nc2N)c2c(c1OC)OC(C1CC1)C=C2 (configuration not stated)	0.125 µg/mL (≈ 0.353 µM)
Cc1cc2nc(-c3cccs3)n(-c3ccc4c(N)nc(N)nc4c3)c2cc1C	0.015 µg/mL (≈ 0.0388 µM)
Cc1cc2nc(-c3ccncc3)n(-c3ccc4c(N)nc(N)nc4c3)c2cc1C	0.125 µg/mL (≈ 0.328 µM)
Cc1cc2nc(-c3cncn3C)n(-c3ccc4c(N)nc(N)nc4c3)c2cc1C	4 µg/mL (≈ 10.4 µM)

Reference: ChEMBL document CHEMBL3124778, “Structure-based design of new dihydrofolate reductase antibacterial agents: 7-(benzimidazol-1-yl)-2,4-diaminoquinazolines” (J Med Chem, 2014)
